Experimental data as given in patent US6603046B1, “Bis-aromatic a,β-unsaturated ketones” (Lica Pharmaceuticals A/S, priority 1992, dated 2003).
Read-outs that look alike come from different tables or passages of the source.

Tests used:
L. major promastigotes = L. major promastigotes from 4-days cultures, 3H-thymidine uptake (Examples 5, 14); type: cell-based, Leishmania major; settings: for inhibition at 0.5 µg/mL / inhibition at 1 µg/mL / inhibition at 5 µg/mL / inhibition at 10 µg/mL / inhibition at 20 µg/mL: Leishmania major; for inhibition at 0.5 µg/mL: 0.5 μg/ml; for inhibition at 1 µg/mL: 1 μg/ml; for inhibition at 5 µg/mL: 5 μg/ml; for inhibition at 20 µg/mL: 20 μg/ml
Experimental: Parasite cultures. The same parasite culture as described in Example 4. Promastigotes were harvested on day 4 of the culture and used for the parasiticidal assay.
Effect on promastigotes. […] Following incubation, […] of ^3H-thymidine was added to each well and further incubated for 18 hrs. Promastigotes were then harvested on filter paper by means of a cell harvester (Skatron, Lierbyen, Norway), extensively washed with distilled water and counted in a scintillation counter (Minaxi Ti-Carb 4000, United Technologies, Packard, USA).
L. major promastigotes. The L. major promastigotes were prepared as described in Example 4 and harvested after 4 days.

human lymphocytes = assay: Lymphocyte Proliferation Assay, 3H-thymidine incorporation (Example 13); settings: for inhibition at 0.5 µg/mL / inhibition at 1 µg/mL / inhibition at 5 µg/mL / inhibition at 10 µg/mL: Homo sapiens, Lymphocyte
[1] = read-out: percentage inhibition of 3H-thymidine uptake (mean ± SEM), Table 5.1
[2] = read-out: percentage inhibition of 3H-thymidine uptake (mean ± SEM), Table 5.1, 10 μg/ml
[3] = Table 14.1, read-out: percentage inhibition of promastigotes (upper figure)
[4] = Table 14.1, 10 μg/ml, read-out: percentage inhibition of promastigotes (upper figure)
[5] = read-out: inhibition of lymphocytes (lower figure)

Row | Compound | inhibition at 0.5 µg/mL (L. major promastigotes; [1]) | inhibition at 1 µg/mL (L. major promastigotes; [1]) | inhibition at 5 µg/mL (L. major promastigotes; [1]) | inhibition at 10 µg/mL (L. major promastigotes; [2]) | inhibition at 0.5 µg/mL (L. major promastigotes; [3]) | inhibition at 1 µg/mL (L. major promastigotes; [3]) | inhibition at 5 µg/mL (L. major promastigotes; [3]) | inhibition at 10 µg/mL (L. major promastigotes; [4]) | inhibition at 0.5 µg/mL (human lymphocytes; [5]) | inhibition at 1 µg/mL (human lymphocytes; [5]) | inhibition at 5 µg/mL (human lymphocytes; [5]) | inhibition at 10 µg/mL (human lymphocytes; [5]) | activity against Leishmania parasites in vitro (L. major promastigotes) | inhibition at 10 µg/mL (L. major promastigotes; read-out: percentage inhibition of promastigotes (upper figure)) | inhibition at 10 µg/mL (human lymphocytes; read-out: inhibition of lymphocytes (lower figure), response to PHA, 10 μg/ml) | toxicity against human lymphocytes (human lymphocytes) | inhibition at 20 µg/mL (L. major promastigotes; [1])
1 | COc1cc(/C=C/C(=O)c2ccc(O)cc2O)ccc1O [drawing 59] | 7.8% | 14.3% | 66.7% | 83.3 ± 4.6% |  |  |  |  |  |  |  |  |  |  |  |  | 
2 | COc1ccc(/C=C/C(=O)c2ccc(OC)cc2)cc1 |  |  |  |  | 11.7 ± 9.2% | 8.3 ± 4.6% | 35.6 ± 23.4% | 51.8 ± 15.8% | 0% | 0% | 0% | 0% |  |  |  |  | 
3 | CC(C)=CCc1cc(/C=C/C(=O)c2ccc(O)c(CC=C(C)C)c2O)ccc1O [drawing 98] |  |  |  |  |  | 12% | 28% | 91% |  |  |  |  |  |  |  |  | 
4 | C=CCOc1ccc(C(=O)/C=C/c2c(OC)cc(OC)cc2OC)cc1 |  |  |  |  | 25 to 44% | 15 to 46% | 14 to 50% | 22 to 49% | 8% | 12% | 24% | 48% |  |  |  |  | 
5 | COc1ccc(CCC(=O)c2ccc(O)cc2)c(OC)c1 [3-(2,4-dimethoxyphenyl)-1-(4-hydroxyphenyl)propan-1-on, reference compound] |  |  |  |  |  |  |  |  |  |  |  |  | very low activity |  |  |  | 
6 | C=CCOc1ccc(C(=O)/C=C/c2cc(OC)c(OC)c(OC)c2)cc1 |  |  |  |  | 11 to 45% | 16 to 47% | 44 to 60% | 86 to 91% | 4% | 4% | 38% | 98% |  |  |  |  | 
7 | O=C(/C=C/c1ccccc1)c1ccccc1 [drawing 60] |  |  |  |  | 21.6% | 34.8% | 91.9% | 97.3% | 2% | 7.3% | 91% | 100% |  |  |  |  | 
8 | COc1ccc(C(=O)/C=C/c2ccccc2)cc1 [drawing 66] |  |  |  |  | 20.6% | 26.3% | 68.1% | 85.5% | 2% | 7.5% | 91% | 100% |  |  |  |  | 
9 | O=C(c1ccccc1)C1OC1c1ccccc1 (centres unmarked) |  |  |  |  | 28.4 ± 13% | 33.4 ± 15.4% | 73.2 ± 17.8% | 88 ± 7.5% | 0% | 0% | 2% | 85.4% |  |  |  |  | 
10 | O=C(/C=C/c1ccc(O)cc1)c1ccc(O)cc1 [drawing 63] |  |  |  |  | 22.5 ± 10% | 26.6 ± 7.6% | 34.6 ± 10.5% |  | 0% | 0% | 96.3% |  |  | 53.1 ± 7.9% | 94.8% |  | 
11 | COCOc1ccc(C(=O)/C=C/c2ccc(OC)cc2OC)cc1 [drawing 58] | 8.5% | 18.1% | 56.3% | 65 ± 5.9% |  |  |  |  |  |  |  |  |  |  |  |  | 
12 | COCOc1ccc(C(=O)/C=C/c2ccc(OC)cc2OC)cc1 [drawing 90] |  |  |  |  | 22.8 ± 9.7% | 27.6 ± 10.9% | 50.2 ± 13% | 65.4 ± 16.1% | 0% | 5.1% | 11.2% | 15.4% |  |  |  |  | 
13 | O=C(/C=C/c1ccccc1)c1ccccc1 [chalcone, reference compound] |  |  |  |  |  |  |  |  |  |  |  |  | very high activity |  |  | extremely high toxicity | 
14 | C=CCOc1ccc(C(=O)/C=C/c2ccc(OC)cc2OC)cc1 [drawing 56] | 7.5% | 17.5% | 64.5% | 84.3 ± 3.5% |  |  |  |  |  |  |  |  |  |  |  |  | 
15 | C=CCOc1ccc(C(=O)/C=C/c2ccccc2OC)cc1 |  |  |  |  | 20.9 ± 7.7% | 25.8 ± 15.3% | 52.8 ± 19.1% | 76.6 ± 22.4% | 0% | 0% | 1.1% | 80.1% |  |  |  |  | 
16 | COc1ccc(CCC(=O)c2ccc[nH]2)c(OC)c1 |  |  |  |  | 0.6% | 9.4% | 18.5% | 40.6% | 10% | 2% | 20% | 41.9% |  |  |  |  | 

Row | Compound | inhibition at 0.5 µg/mL (L. major promastigotes; [1]) | inhibition at 1 µg/mL (L. major promastigotes; [1]) | inhibition at 5 µg/mL (L. major promastigotes; [1]) | inhibition at 10 µg/mL (L. major promastigotes; [2]) | inhibition at 0.5 µg/mL (L. major promastigotes; [3]) | inhibition at 1 µg/mL (L. major promastigotes; [3]) | inhibition at 5 µg/mL (L. major promastigotes; [3]) | inhibition at 10 µg/mL (L. major promastigotes; [4]) | inhibition at 0.5 µg/mL (human lymphocytes; [5]) | inhibition at 1 µg/mL (human lymphocytes; [5]) | inhibition at 5 µg/mL (human lymphocytes; [5]) | inhibition at 10 µg/mL (human lymphocytes; [5]) | activity against Leishmania parasites in vitro (L. major promastigotes) | inhibition at 10 µg/mL (L. major promastigotes; read-out: percentage inhibition of promastigotes (upper figure)) | inhibition at 10 µg/mL (human lymphocytes; read-out: inhibition of lymphocytes (lower figure), response to PHA, 10 μg/ml) | toxicity against human lymphocytes (human lymphocytes) | inhibition at 20 µg/mL (L. major promastigotes; [1])
17 | O=C(/C=C/c1ccccc1)c1ccc(F)cc1 |  |  |  |  |  |  | 88% | 99% |  |  |  |  |  |  |  |  | 
18 | COCCOCOc1ccc(C(=O)/C=C/c2ccc(OC)cc2OC)cc1 | 20% | 14% | 31% | 60.5 ± 5.6% |  |  |  |  |  |  |  |  |  |  |  |  | 
19 | COc1ccc(/C=C/C(=O)c2ccc(O)cc2)c(OC)c1 [drawing 55] | 19.4% | 27.3% | 61.8% | 91.9 ± 4.6% |  |  |  |  |  |  |  |  |  |  |  |  | 
20 | O=C(/C=C/c1ccc(O)c(O)c1)c1ccc(O)cc1O |  |  |  |  | 7% | 8% | 4.2% | 10.6% | 0% | 1% | 12% | 51% |  |  |  |  | 
21 | COc1ccc(CCC(=O)c2ccc(O)cc2)c(OC)c1 [drawing 92] |  |  |  |  | 8.5 ± 1.8% | 5.6 ± 5.4% | 22.5 ± 9.7% | 31.3 ± 16% | 0% | 0% | 3% | 1.5% |  |  |  |  | 
22 | COc1cc(/C=C/C(=O)c2ccc(O)cc2O)ccc1O [drawing 74] |  |  |  |  | 7.8% | 14.3% | 56.7% | 83.3% | 2% | 6% | 9.5% | 38.3% |  |  |  |  | 
23 | COc1cccc(/C=C/C(=O)c2ccc(O)cc2)c1OC [drawing 69] |  |  |  |  | 32% | 43% | 95.2 ± 4.7% | 97.1 ± 3.5% | 2% | 7.5% | 89.3% | 99.8% |  |  |  |  | 
24 | COCCOCOc1ccc(C(=O)/C=C/c2ccc(OCC=C(C)C)cc2OC)cc1 |  |  |  |  | 11.5% | 14% | 33.1% | 61.5% | 0% | 8.1% | 14.1% | 28.3% |  |  |  |  | 
25 | C=CCOc1ccc(C(=O)/C=C/c2cc(OC)c(OC)cc2OC)cc1 |  |  |  |  | 24 ± 12% | 23.8 ± 12.5% | 23.2 ± 12.8% | 28.8 ± 16% | 0% | 0% | 0% | 27.6% |  |  |  |  | 
26 | COc1cc(OC)c(/C=C/C(=O)c2ccc(O)cc2)c(OC)c1 |  |  |  |  | 25 ± 9.5% | 25.6 ± 10.9% | 23.6 ± 10.9% | 25.1 ± 17.3% | 0% | 0% | 48% | 63.6% |  |  |  |  | 
27 | CC(C)=CCc1c(O)ccc(C(=O)/C=C/c2cc(O)c3c(c2)C=CC(C)(C)O3)c1O [drawing 97] |  |  |  |  |  |  |  | 18% |  |  |  |  |  |  |  |  | 
28 | O=C(/C=C/c1ccccc1)c1ccc(O)cc1 [drawing 53] |  | 35.9% | 70.8% | 82.8% |  |  |  |  |  |  |  |  |  |  |  |  | 91.9 ± 2.1%
29 | COc1ccc(/C=C/C(=O)c2ccc(OCOC(=O)C(C)(C)C)cc2)c(OC)c1 |  |  |  |  | 3.9% | 0% | 7.9% | 28.6% | 7.1% | 8.2% | 9% | 32.7% |  |  |  |  | 
30 | COc1ccc(/C=C/C(=O)c2ccccc2OCC=C(C)C)c(OC)c1 |  |  |  |  | 4.3% | 1.8% | 49% | 83.2% | 7.1% | 6.6% | 8.7% | 35.9% |  |  |  |  | 
31 | COc1ccc(CCC(=O)c2ccco2)c(OC)c1 |  |  |  |  | 9.5% | 9.4% | 55.1% | 89.6% | 3.6% | 11.7% | 33.6% | 41.9% |  |  |  |  | 
32 | O=C(/C=C/c1ccc(O)cc1)c1ccccc1 [drawing 54] |  | 39.1% | 70.1% | 84.5% |  |  |  |  |  |  |  |  |  |  |  |  | 94.3 ± 1.6%
